Data from the supplement of paper PMC10331698.
± gives the standard deviation of the averaged measurements.

Assays:
Assay in all cases: level (log10 ratio to DMSO vehicle control); higher = higher biomarker level / cell amount than vehicle control
Conditions in all cases: in DMSO
[1] = compound: O=C(O)CCC(F)(F)C(F)(F)C(F)(F)F [3:3 Fluorotelomer carboxylic acid]
Method: (§1)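 BioMAP Diversity Plus panel of 12 human primary cell co-culture systems (3C, 4H, LPS, SAg, BT, BF4T, BE3C, CASM3C, HDF3CGF, KF3CT, MyoF, Mphg). Compounds were added 1 h before stimulation and left for 24 h (MyoF 48 h; BT 72 h for soluble read-outs or 6 d for IgG). Biomarkers were read by ELISA, cytotoxicity by SRB, PBMC viability and proliferation by Alamar Blue. Each well value was divided by the mean of 8 DMSO control wells on the same plate and log10 transformed; duplicate blinded samples were tested at 4 concentrations.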

[2] = compound: C=CC(=O)OCCC(F)(F)C(F)(F)C(F)(F)C(F)(F)F [2-(Perfluorobutyl)ethyl acrylate]
Method: as §1

[3] = compound: O=C(O)C(F)(F)OC(F)(F)C(F)(F)OC(F)(F)C(F)(F)C(F)(F)C(F)(F)F [Perfluoro-3,6-dioxadecanoic acid]
Method: as §1

| Test System | level (log10) ([1]; 6700 nM) | level (log10) ([1]; 20000 nM) | level (log10) ([1]; 60000 nM) | level (log10) ([2]; 6700 nM) | level (log10) ([2]; 20000 nM) | level (log10) ([2]; 60000 nM) | level (log10) ([3]; 6700 nM) | level (log10) ([3]; 20000 nM) | level (log10) ([3]; 60000 nM) |
| --- | --- | --- | --- | --- | --- | --- | --- | --- | --- |
| 3C:CD87/uPAR | 0.0055 ± 0.011 | -0.017 ± 0.0057 | -0.0125 ± 0.018 | 0.0065 ± 0.00071 | 0.0145 ± 0.005 | 0.004 ± 0.017 | 0.0065 ± 0.013 | -0.0145 ± 0.011 | -0.083 ± 0.058 |
| 3C:CXCL8/IL-8 | -0.004 ± 0.0014 | 0.0045 ± 0.012 | 0.023 ± 0.044 | -0.0155 ± 0.015 | -0.02 ± 0.0085 | 0.003 ± 0.024 | -0.006 | -0.0025 ± 0.0064 | 0.0305 ± 0.013 |
| 3C:CXCL9/MIG | 0.0045 ± 0.0021 | -0.001 ± 0.0028 | 0.001 ± 0.0014 | 0.0135 ± 0.013 | -0.011 ± 0.0099 | -0.0025 ± 0.0035 | -0.015 ± 0.02 | -0.0185 ± 0.019 | -0.002 ± 0.017 |
| 3C:HLA-DR | -0.0055 ± 0.029 | -0.0155 ± 0.013 | -0.0105 ± 0.0092 | 0.035 ± 0.013 | 0.0285 ± 0.0035 | -0.046 ± 0.058 | 0.0345 ± 0.04 | 0.021 ± 0.044 | 0.016 ± 0.071 |
| 3C:Proliferation | -0.0215 ± 0.054 | -0.0175 ± 0.091 | 0.0195 ± 0.049 | -0.0445 ± 0.049 | -0.088 ± 0.028 | -0.304 ± 0.07 | -0.0105 ± 0.0035 | 0.0325 ± 0.022 | -0.369 ± 0.13 |
| 3C:SRB | -0.0095 ± 0.00071 | -0.006 ± 0.0028 | -0.012 ± 0.0099 | 0.0005 ± 0.021 | 0.0035 ± 0.0092 | -0.0345 ± 0.0078 | -0.016 ± 0.0071 | -0.0055 ± 0.019 | -0.149 ± 0.074 |
| 4H:CCL2/MCP-1 | -0.032 ± 0.048 | -0.0525 ± 0.012 | 0.007 ± 0.013 | -0.0405 ± 0.028 | -0.043 ± 0.037 | 0.009 ± 0.11 | -0.0225 ± 0.0092 | -0.0425 ± 0.011 | -0.093 ± 0.14 |
| 4H:CCL26/Eotaxin-3 | -0.005 ± 0.0071 | -0.004 | -0.0225 ± 0.043 | -0.0355 ± 0.039 | -0.006 ± 0.0071 | 0.0135 ± 0.0078 | 0.0145 ± 0.005 | -0.0035 ± 0.039 | 0.032 ± 0.048 |
| 4H:CD62P/P-selectin | 0.0135 ± 0.042 | 0.0445 ± 0.025 | -0.003 ± 0.02 | 0.0065 ± 0.064 | -0.064 ± 0.047 | -0.102 ± 0.036 | 0.015 ± 0.09 | 0.0205 ± 0.066 | 0.0165 ± 0.013 |
| 4H:CD87/uPAR | 0.001 ± 0.027 | -0.014 ± 0.0071 | -0.045 ± 0.011 | -0.005 ± 0.038 | 0.0055 ± 0.0035 | 0.025 ± 0.0085 | -0.004 ± 0.0099 | -0.004 ± 0.0085 | -0.0175 ± 0.037 |
| 4H:CD106/VCAM-1 | -0.009 ± 0.0028 | -0.014 ± 0.014 | -0.0165 ± 0.013 | -0.0215 ± 0.013 | -0.0495 ± 0.056 | -0.123 ± 0.085 | -0.0095 ± 0.018 | -0.0195 ± 0.022 | -0.039 ± 0.0099 |
| 4H:SRB | -0.0125 ± 0.022 | -0.003 ± 0.013 | -0.0185 ± 0.012 | -0.003 ± 0.0085 | 0.0105 ± 0.021 | -0.0205 ± 0.016 | -0.005 ± 0.018 | -0.002 ± 0.0057 | -0.065 ± 0.041 |
| 4H:VEGFR2 | -0.0045 ± 0.0078 | -0.0135 ± 0.011 | 0.0075 ± 0.063 | 0.01 | -0.006 ± 0.017 | -0.0035 ± 0.037 | -0.035 ± 0.065 | -0.0105 ± 0.035 | -0.0755 ± 0.036 |
| BE3C:CD54/ICAM-1 | -0.009 ± 0.0042 | 0.017 ± 0.02 | 0.002 ± 0.0057 | -0.0045 ± 0.0035 | -0.0175 ± 0.0064 | -0.037 ± 0.03 | -0.0105 ± 0.0021 | -0.024 ± 0.013 | 0.008 ± 0.0057 |
| BE3C:CD87/uPAR | 0.0045 ± 0.016 | -0.0035 ± 0.011 | 0.0115 ± 0.019 | 0.014 ± 0.021 | 0.0125 ± 0.025 | -0.018 ± 0.0071 | 0.018 ± 0.0014 | 0.0455 ± 0.025 | 0.102 ± 0.0099 |
| BE3C:CXCL8/IL-8 | -0.0085 ± 0.036 | 0.0075 ± 0.005 | -0.0095 ± 0.0092 | 0.006 ± 0.025 | -0.0165 ± 0.06 | -0.016 ± 0.095 | 0.0135 ± 0.016 | 0.0065 ± 0.019 | -0.0965 ± 0.0092 |

| Test System | level (log10) ([1]; 6700 nM) | level (log10) ([1]; 20000 nM) | level (log10) ([1]; 60000 nM) | level (log10) ([2]; 6700 nM) | level (log10) ([2]; 20000 nM) | level (log10) ([2]; 60000 nM) | level (log10) ([3]; 6700 nM) | level (log10) ([3]; 20000 nM) | level (log10) ([3]; 60000 nM) |
| --- | --- | --- | --- | --- | --- | --- | --- | --- | --- |
| BE3C:CXCL9/MIG | 0.006 ± 0.0099 | 0.0055 ± 0.00071 | 0.01 ± 0.0014 | 0.0005 ± 0.005 | -0.0085 ± 0.005 | 0.003 ± 0.0057 | -0.0045 ± 0.011 | -0.011 ± 0.017 | -0.012 ± 0.0057 |
| BE3C:CXCL10/IP-10 | -0.0015 ± 0.005 | 0.0045 ± 0.015 | 0.013 ± 0.0099 | -0.0025 ± 0.00071 | -0.007 ± 0.0057 | -0.012 ± 0.013 | -0.0415 ± 0.025 | -0.0795 ± 0.033 | -0.626 ± 0.02 |
| BE3C:CXCL11/I-TAC | -0.004 ± 0.021 | 0.0045 ± 0.005 | 0.0005 ± 0.0035 | 0.0035 ± 0.00071 | -0.0065 ± 0.012 | -0.018 ± 0.0028 | 0.0945 ± 0.00071 | 0.124 ± 0.011 | 0.0095 ± 0.022 |
| BE3C:EGFR | 0.006 ± 0.0057 | 0.0105 ± 0.013 | -0.0015 ± 0.005 | -0.003 | -0.0065 ± 0.00071 | -0.014 ± 0.023 | -0.02 ± 0.02 | -0.0485 ± 0.019 | -0.122 ± 0.0092 |
| BE3C:HLA-DR | -0.0345 ± 0.035 | -0.018 ± 0.011 | -0.0225 ± 0.005 | 0.0145 ± 0.022 | -0.02 ± 0.0071 | -0.0575 ± 0.005 | -0.038 ± 0.021 | -0.08 ± 0.0085 | -0.135 ± 0.017 |
| BE3C:IL-1alpha | 0.0135 ± 0.037 | 0.0255 ± 0.039 | 0.0155 ± 0.035 | -0.0035 ± 0.022 | -0.0305 ± 0.03 | -0.012 ± 0.0057 | -0.0135 ± 0.0021 | -0.0005 ± 0.0078 | -0.165 ± 0.021 |
| BF4T:CCL2/MCP-1 | -0.0025 ± 0.0021 | -0.018 ± 0.0014 | -0.01 ± 0.041 | -0.009 ± 0.013 | -0.01 ± 0.0028 | -0.0325 ± 0.029 | -0.175 ± 0.031 | -0.095 ± 0.016 | -0.16 ± 0.052 |
| BF4T:CCL26/Eotaxin-3 | -0.015 ± 0.018 | -0.0095 ± 0.026 | 0.009 ± 0.018 | -0.0005 ± 0.018 | -0.0295 ± 0.023 | -0.019 ± 0.02 | -0.241 ± 0.012 | -0.23 ± 0.018 | -0.231 ± 0.046 |
| BF4T:CD54/ICAM-1 | -0.0075 ± 0.0092 | 0.007 | -0.008 ± 0.0071 | -0.0085 ± 0.0078 | -0.013 ± 0.0099 | -0.064 ± 0.014 | -0.04 ± 0.0057 | -0.0335 ± 0.0035 | -0.0365 ± 0.005 |
| BF4T:CD90 | -0.0025 ± 0.005 | -0.009 ± 0.0014 | -0.0085 ± 0.013 | -0.017 ± 0.0028 | -0.025 ± 0.0099 | -0.016 ± 0.0071 | -0.023 ± 0.0099 | -0.004 ± 0.0014 | 0.017 ± 0.0071 |
| BF4T:CD106/VCAM-1 | -0.012 ± 0.041 | 0.0075 ± 0.0078 | 0.0205 ± 0.018 | 0.005 ± 0.0042 | -0.033 ± 0.025 | -0.08 ± 0.0028 | -0.0965 ± 0.018 | -0.083 ± 0.0099 | -0.0925 ± 0.03 |
| BF4T:CXCL8/IL-8 | -0.0125 ± 0.025 | -0.0155 ± 0.052 | -0.019 ± 0.031 | -0.006 ± 0.023 | -0.0105 ± 0.025 | 0.005 ± 0.027 | 0.102 ± 0.0092 | 0.163 ± 0.011 | 0.171 ± 0.019 |
| BF4T:IL-1alpha | -0.0035 ± 0.019 | -0.009 ± 0.02 | 0.003 | -0.0115 ± 0.0078 | -0.0305 ± 0.011 | 0.012 ± 0.038 | 0.008 ± 0.0057 | 0.0015 ± 0.00071 | -0.0055 ± 0.005 |
| BF4T:Keratin 8/18 | 0.004 ± 0.024 | -0.006 ± 0.0042 | 0.0135 ± 0.015 | -0.003 ± 0.055 | 0.0035 ± 0.059 | 0.0085 ± 0.036 | -0.0125 ± 0.0064 | -0.0225 ± 0.011 | 0.004 ± 0.033 |
| BF4T:MMP-1 | 0.0005 ± 0.0064 | -0.0065 ± 0.011 | -0.005 ± 0.027 | -0.003 ± 0.044 | -0.003 ± 0.051 | 0.047 ± 0.031 | -0.046 ± 0.013 | 0.01 ± 0.037 | 0.0625 ± 0.015 |
| BF4T:MMP-3 | 0.0285 ± 0.042 | 0.0005 ± 0.033 | 0.018 ± 0.023 | -0.008 ± 0.021 | 0.0315 ± 0.052 | 0.0525 ± 0.00071 | 0.008 ± 0.0057 | 0.11 ± 0.015 | 0.161 ± 0.037 |
